ChEMBL document CHEMBL1201862, “PubChem BioAssay data set” (2004)
Calls of active or inactive are those of the source.

Tests used:
Mucolipin-3 = Mucolipin-3 (Homo sapiens, UniProt Q8TDD5); assay: Dose response cell-based high-throughput screening assay for agonists of the transient receptor potential channel ML3 (TRPML3). [Related pubchem assays: 1526, 1424, 1448 ]; type: functional
Ion channel NompC = Ion channel NompC (Danio rerio, UniProt Q7T1G6); assay: Fluorescence counterscreen assay for TRPML3 agonists: dose response cell-based high-throughput screening assay to identify agonists of the transient receptor potential channel N1 (TRPN1). [Related pubchem assays: 1526, 1424, 1448 ]; type: functional
Chain of Ion channel NompC (Q7T1G6 whole entry, the tested form may be a part): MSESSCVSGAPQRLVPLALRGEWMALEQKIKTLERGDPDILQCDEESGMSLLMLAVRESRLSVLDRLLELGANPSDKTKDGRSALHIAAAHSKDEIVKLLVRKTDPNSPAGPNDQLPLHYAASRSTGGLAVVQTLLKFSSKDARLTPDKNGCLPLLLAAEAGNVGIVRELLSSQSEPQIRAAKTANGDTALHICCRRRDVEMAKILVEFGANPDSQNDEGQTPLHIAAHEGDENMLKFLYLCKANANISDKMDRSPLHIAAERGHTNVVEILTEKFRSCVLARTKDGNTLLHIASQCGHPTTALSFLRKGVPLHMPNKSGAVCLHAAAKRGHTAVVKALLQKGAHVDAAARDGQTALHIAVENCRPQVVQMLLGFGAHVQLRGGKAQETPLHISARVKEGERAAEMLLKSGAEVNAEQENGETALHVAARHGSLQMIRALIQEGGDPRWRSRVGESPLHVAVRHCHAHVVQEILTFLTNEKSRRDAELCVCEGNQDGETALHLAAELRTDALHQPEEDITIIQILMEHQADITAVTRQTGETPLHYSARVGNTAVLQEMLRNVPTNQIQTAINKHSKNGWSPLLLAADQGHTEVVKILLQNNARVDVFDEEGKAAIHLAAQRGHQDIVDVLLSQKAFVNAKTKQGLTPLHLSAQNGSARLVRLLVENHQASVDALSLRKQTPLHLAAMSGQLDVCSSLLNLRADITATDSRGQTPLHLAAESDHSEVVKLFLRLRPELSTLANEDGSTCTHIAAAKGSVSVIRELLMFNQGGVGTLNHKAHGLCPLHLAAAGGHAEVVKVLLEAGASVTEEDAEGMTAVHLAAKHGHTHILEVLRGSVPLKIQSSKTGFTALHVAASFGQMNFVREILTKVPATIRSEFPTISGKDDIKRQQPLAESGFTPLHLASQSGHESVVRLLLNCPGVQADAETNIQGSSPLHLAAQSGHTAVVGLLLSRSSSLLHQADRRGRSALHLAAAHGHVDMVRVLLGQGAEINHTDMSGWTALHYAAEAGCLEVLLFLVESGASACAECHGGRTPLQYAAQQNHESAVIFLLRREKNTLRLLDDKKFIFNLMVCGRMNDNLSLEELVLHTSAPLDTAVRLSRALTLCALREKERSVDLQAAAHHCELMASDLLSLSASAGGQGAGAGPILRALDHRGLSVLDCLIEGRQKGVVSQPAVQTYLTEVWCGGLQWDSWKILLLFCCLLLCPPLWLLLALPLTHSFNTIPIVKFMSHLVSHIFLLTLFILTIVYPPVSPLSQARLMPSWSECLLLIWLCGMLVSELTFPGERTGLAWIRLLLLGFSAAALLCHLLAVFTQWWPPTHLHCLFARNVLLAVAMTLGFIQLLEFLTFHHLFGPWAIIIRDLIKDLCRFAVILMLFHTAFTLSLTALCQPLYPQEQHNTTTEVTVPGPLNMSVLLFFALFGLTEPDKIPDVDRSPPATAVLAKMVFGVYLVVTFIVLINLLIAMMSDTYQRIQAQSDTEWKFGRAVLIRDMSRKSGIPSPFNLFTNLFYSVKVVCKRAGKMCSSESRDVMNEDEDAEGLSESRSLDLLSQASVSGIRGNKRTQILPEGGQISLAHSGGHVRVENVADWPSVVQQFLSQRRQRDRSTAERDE

[1] = target: T1, RNA-binding protein pos-1 (Caenorhabditis elegans, UniProt G5EF15); assay: inhibitors of POS-1/mex-3 RNA binding, dose response, biochemical, fluorescence polarization (AID 1964);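 note: purified POS-1 fused to maltose binding protein made in E. coli; potency of compounds blocking POS-1 binding to fluorescent RNA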
T1 sequence (G5EF15 whole entry): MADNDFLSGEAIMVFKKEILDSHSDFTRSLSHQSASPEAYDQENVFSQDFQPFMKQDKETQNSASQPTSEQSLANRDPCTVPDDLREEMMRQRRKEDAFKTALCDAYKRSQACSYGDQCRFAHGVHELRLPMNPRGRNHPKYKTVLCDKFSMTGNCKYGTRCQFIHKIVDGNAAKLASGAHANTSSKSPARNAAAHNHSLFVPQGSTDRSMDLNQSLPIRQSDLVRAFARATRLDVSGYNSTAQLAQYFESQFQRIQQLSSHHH

[2] = target: T2, Zinc finger protein mex-5 (Caenorhabditis elegans, UniProt Q9XUB2); assay: MEX-5/TCR-2 RNA interaction inhibitors, dose response, biochemical, C. elegans, fluorescence polarization (AID 1960)
T2 sequence (Q9XUB2 whole entry): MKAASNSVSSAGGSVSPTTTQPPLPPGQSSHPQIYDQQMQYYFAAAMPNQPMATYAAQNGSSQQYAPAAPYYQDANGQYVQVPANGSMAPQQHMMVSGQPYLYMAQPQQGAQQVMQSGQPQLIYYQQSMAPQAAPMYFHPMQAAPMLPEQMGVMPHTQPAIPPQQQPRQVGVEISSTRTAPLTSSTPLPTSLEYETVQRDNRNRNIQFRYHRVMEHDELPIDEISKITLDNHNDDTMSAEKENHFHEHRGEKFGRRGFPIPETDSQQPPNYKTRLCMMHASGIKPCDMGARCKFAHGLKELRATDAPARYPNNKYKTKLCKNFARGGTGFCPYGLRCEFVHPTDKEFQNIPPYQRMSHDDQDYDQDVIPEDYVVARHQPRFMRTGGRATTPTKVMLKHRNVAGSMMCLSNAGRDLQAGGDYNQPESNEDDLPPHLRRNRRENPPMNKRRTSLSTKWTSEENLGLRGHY

[3] = target: T3, Heat shock factor protein 1 (Mus musculus, UniProt P38532); assay: inhibition of MG132-induced HSE-luciferase signal, confirmation, cell-based, NIH3T3, luminescence, dose retest (AID 2382); type: functional;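 note: NIH3T3 fibroblasts with HSF1-driven luciferase reporter stressed by proteasome inhibitor MG132; luminescence from HSF1-driven luciferase expression after 8 hours of MG132 stress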
T3 sequence (P38532 whole entry): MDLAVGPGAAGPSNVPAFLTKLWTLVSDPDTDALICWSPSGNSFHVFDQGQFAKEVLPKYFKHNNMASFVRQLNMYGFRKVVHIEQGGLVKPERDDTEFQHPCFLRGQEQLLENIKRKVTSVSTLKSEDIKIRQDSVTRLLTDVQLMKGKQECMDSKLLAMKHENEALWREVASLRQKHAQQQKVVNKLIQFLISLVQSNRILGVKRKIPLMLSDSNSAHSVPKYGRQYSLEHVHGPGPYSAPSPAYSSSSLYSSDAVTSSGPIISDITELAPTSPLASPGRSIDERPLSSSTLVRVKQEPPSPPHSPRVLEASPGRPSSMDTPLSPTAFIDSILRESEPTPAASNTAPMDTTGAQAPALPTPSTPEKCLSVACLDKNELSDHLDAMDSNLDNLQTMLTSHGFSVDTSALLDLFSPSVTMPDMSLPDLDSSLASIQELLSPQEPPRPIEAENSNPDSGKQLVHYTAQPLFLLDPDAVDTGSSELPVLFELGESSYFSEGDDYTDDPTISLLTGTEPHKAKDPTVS

[4] = M. tuberculosis H37Rv growth inhibitors, H37Rv strain (AID 1626); type: functional
[5] = inhibitors of Bluetongue virus cytopathic effect, confirmation, arbovirus, BSR cells (AID 1250); type: functional;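 note: protection from viral cytopathic effect measured as cell viability by ATP luminescence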
[6] = target: Sphingosine 1-phosphate receptor 2 (Homo sapiens, UniProt O95136); assay: Dose Response Cell Based Assay for Agonists of the S1P2 Receptor of Purchased Analogues. [Related pubchem assays: 729, 843, 854, 736 ]; type: functional
Chain of Sphingosine 1-phosphate receptor 2 (O95136 whole entry): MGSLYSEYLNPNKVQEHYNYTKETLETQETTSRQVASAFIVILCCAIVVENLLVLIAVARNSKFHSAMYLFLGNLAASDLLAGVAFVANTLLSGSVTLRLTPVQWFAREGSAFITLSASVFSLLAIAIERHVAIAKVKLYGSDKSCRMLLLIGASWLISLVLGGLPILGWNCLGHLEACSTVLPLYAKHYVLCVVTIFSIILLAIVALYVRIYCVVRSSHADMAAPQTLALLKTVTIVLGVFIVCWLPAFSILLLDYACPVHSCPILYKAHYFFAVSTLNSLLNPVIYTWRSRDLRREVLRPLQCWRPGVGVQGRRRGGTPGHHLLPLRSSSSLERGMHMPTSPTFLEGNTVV

NADPH oxidase 1 = NADPH oxidase 1 (Homo sapiens, UniProt Q9Y5S8); type: functional, cell-based;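 note: Cell-based assay with luminescence read-out, IC50 derived from inhibitor dose-response curves; intracellular ROS from endogenous NOX1 in intact HT29 colon cancer cells; potency of inhibitors that lower the ROS luminescence signal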
Chain of NADPH oxidase 1 (Q9Y5S8 whole entry): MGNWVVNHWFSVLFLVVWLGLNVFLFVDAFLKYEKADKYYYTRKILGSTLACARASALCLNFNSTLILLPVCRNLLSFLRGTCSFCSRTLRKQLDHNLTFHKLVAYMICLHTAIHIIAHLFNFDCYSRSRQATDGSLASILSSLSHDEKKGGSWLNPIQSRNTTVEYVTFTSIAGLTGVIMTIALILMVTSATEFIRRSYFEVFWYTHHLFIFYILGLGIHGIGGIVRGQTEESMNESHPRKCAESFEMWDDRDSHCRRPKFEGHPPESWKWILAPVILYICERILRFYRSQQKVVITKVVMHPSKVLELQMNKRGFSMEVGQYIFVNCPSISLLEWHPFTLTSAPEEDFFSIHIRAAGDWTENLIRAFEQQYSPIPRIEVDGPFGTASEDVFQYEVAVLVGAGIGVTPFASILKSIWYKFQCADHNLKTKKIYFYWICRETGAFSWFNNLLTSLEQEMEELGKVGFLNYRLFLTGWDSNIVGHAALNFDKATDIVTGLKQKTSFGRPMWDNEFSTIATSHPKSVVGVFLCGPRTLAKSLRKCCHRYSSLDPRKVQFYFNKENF

Chain of Mucolipin-3 (Q8TDD5 whole entry): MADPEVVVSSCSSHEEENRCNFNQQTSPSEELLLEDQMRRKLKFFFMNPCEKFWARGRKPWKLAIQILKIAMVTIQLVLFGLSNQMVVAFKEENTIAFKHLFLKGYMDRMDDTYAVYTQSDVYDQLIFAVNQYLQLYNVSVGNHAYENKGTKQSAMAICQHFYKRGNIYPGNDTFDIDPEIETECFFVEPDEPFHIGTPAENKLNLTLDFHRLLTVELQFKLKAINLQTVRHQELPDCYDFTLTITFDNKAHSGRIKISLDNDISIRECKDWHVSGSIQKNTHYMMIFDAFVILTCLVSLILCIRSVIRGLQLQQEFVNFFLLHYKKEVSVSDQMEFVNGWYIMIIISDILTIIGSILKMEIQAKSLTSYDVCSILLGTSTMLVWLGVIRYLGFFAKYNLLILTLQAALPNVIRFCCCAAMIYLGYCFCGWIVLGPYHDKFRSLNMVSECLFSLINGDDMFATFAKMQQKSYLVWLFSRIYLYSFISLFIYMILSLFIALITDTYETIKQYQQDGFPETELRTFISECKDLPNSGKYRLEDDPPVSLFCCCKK

For `COc1cc(S(=O)(=O)N(C)C2CCCCC2)c(C)cc1C`, the EC50 (Mucolipin-3) was 3.06 µM (active) and the EC50 (Ion channel NompC) was > 29.9 µM (not active).
For `COc1ccc(/N=C/c2c(O)ccc3ccccc23)cc1`, the EC50 [1] was > 300 µM (not active), the EC50 [2] was > 300 µM (not active) and the EC50 [3] was 35.1 µM (active). The IC50 [4] was > 100 µM (active).
With `COc1ccc(-c2c3c(cc(C)[n+]2[O-])oc2ccc(OC)cc23)cc1` the IC50 [5] was 22 µM (active).
For `Cc1cc(C(=O)CSc2ncccn2)c(C)n1Cc1ccccc1`, the EC50 [6] was > 30 µM (not active).
In the case of `O=[N+]([O-])c1ccc(-c2nc(-c3ccccc3)c(-c3ccccc3)[nH]2)cc1`, the IC50 (NADPH oxidase 1) is reported as > 17 µM (not active).
